# Laboratory results published in US20150239889A1, “PYRAZOLOPYRIMIDINE COMPOUND” (MITSUBISHI TANABE PHARMA CORPORATION, priority 2012, published 2015).
# Tests used:
# human HIF-PHD3 = target: T1, human HIF-PHD3 (Homo sapiens, UniProt Q9H6Z9); experiment: HIF-PHD inhibition assay (fluorescence polarization), human HIF-PHD3; type: biochemical; conditions: 2-oxoglutaric acid 166 μmol/L
# T1 construct: purchased CrystalGenomics Ltd
# Procedure: (§1) The activity of the test compound to inhibit human HIF-PHD2 and human HIF-PHD3 was determined.
# (§2) The value of enzyme activity was calculated by subtracting the value of fluorescence polarization before addition of the enzyme from the value of fluorescence polarization after addition of enzyme (mP value).
# (§3) FAM: 5′-fluoresceinamide ACA: aminocaproic acid
# human HIF-PHD2 = target: T2, human HIF-PHD2 (Homo sapiens, UniProt Q9GZT9); experiment: HIF-PHD inhibition assay (fluorescence polarization), human HIF-PHD2; type: biochemical; conditions: 2-oxoglutaric acid 3.33 μmol/L
# T2 construct: purchased CrystalGenomics Ltd
# Procedure: as §1, §2, §3
# T2 sequence (Q9GZT9 2-426 limits assumed): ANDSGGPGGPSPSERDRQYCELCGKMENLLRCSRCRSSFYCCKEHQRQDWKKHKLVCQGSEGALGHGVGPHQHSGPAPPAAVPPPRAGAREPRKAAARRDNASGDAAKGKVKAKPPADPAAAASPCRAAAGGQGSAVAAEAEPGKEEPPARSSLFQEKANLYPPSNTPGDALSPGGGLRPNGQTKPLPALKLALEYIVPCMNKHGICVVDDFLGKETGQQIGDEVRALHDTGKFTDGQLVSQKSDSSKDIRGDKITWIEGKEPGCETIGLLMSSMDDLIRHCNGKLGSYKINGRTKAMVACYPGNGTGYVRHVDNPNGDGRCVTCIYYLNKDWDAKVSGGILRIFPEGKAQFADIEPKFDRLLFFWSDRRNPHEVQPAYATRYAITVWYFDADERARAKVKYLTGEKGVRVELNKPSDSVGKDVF
# T1 sequence (Q9H6Z9 whole entry): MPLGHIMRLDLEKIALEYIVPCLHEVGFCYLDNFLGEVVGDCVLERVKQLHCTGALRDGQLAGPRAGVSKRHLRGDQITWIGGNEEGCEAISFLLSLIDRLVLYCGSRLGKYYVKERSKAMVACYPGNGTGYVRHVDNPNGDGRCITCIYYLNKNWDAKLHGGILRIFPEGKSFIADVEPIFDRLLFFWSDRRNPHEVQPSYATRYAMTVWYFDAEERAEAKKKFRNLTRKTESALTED
SMILES,IC50 (human HIF-PHD3),IC50 (human HIF-PHD2)
CC(c1ccc(F)c(C(F)(F)F)c1)n1ncc2nc(-n3cc(C(=O)O)cn3)nc(O)c21 (centres unmarked) [Example 303],0.61 µM,0.078 µM
CCC(c1ccc(Cl)cc1F)n1ncc2nc(-n3cc(C(=O)O)cn3)nc(O)c21 (centres unmarked) [Example 350],0.53 µM,0.049 µM
CC(c1cc(Cl)cc(Cl)c1)n1ncc2nc(-n3cc(C(=O)O)cn3)nc(O)c21 (centres unmarked) [Example 307],0.5 µM,0.045 µM
Cc1ccc(C(F)(F)F)cc1[C@H](C)n1ncc2nc(-n3cc(C(=O)O)cn3)nc(O)c21 [Example 286],0.82 µM,0.096 µM
C[C@@H](c1ccc(C(F)(F)F)cc1)n1nc(C(F)(F)F)c2nc(-n3cc(C(=O)O)cn3)nc(O)c21 [Example 463],0.93 µM,0.065 µM
"CCC1CCCC(n2ncc3nc(-n4cc(C(=O)O)cn4)nc(O)c32)C1 (single isomer, unassigned) [Example 414]",0.82 µM,0.033 µM
C[C@@H](c1ccc(C(F)(F)F)cc1)n1nc(C2CC2)c2nc(-n3cc(C(=O)O)cn3)nc(O)c21 [Example 456],0.43 µM,0.053 µM
Cc1cc(Cl)cc([C@H](C)n2ncc3nc(-n4cc(C(=O)O)cn4)nc(O)c32)c1 [Example 267],0.53 µM,0.086 µM
O=C(O)c1cnn(-c2nc(O)c3c(cnn3[C@@H]3CCc4ccccc43)n2)c1 [Example 396],0.34 µM,0.047 µM
CCC(CC)n1ncc2nc(-n3cc(C(=O)O)cn3)nc(O)c21 [Example 487],0.53 µM,0.081 µM
"O=C(O)c1cnn(-c2nc(O)c3c(cnn3C(c3ccc(Cl)cc3)C3CC3)n2)c1 (single isomer, unassigned) [Example 365]",0.46 µM,0.012 µM
C[C@H]1CC[C@H](n2nc(F)c3nc(-n4cc(C(=O)O)cn4)nc(O)c32)CC1 [Example 479],0.26 µM,0.042 µM
C[C@@H](C1CCN(c2cccc(C(F)(F)F)c2)CC1)n1ncc2nc(-n3cc(C(=O)O)cn3)nc(O)c21 [Example 434],0.42 µM,0.028 µM
C[C@@H](c1cc(C(F)(F)F)cc(C(F)(F)F)c1)n1ncc2nc(-n3cc(C(=O)O)cn3)nc(O)c21 [Example 272],0.98 µM,0.079 µM
CC(C)(C)[C@H]1CC[C@H](Cn2nc(Cl)c3nc(-n4cc(C(=O)O)cn4)nc(O)c32)CC1 [Example 225],0.15 µM,0.022 µM
Cn1nc(-c2ccccc2)c2nc(-n3cc(C(=O)O)cn3)nc(O)c21 [Example 502],1.2 µM,> 0.3 µM
"Cc1ccc(C(C2CC2)n2ncc3nc(-n4cc(C(=O)O)cn4)nc(O)c32)cc1 (single isomer, unassigned) [Example 369]",0.4 µM,0.035 µM
Cc1ccc([C@H](C)n2nc(F)c3nc(-n4cc(C(=O)O)cn4)nc(O)c32)cc1C [Example 441],0.43 µM,0.06 µM
Cc1cc(C(C2CC2)n2ncc3nc(-n4cc(C(=O)O)cn4)nc(O)c32)ccc1F (centres unmarked) [Example 376],0.77 µM,0.072 µM
Cc1ccc(C(F)(F)F)cc1[C@@H](C)n1ncc2nc(-n3cc(C(=O)O)cn3)nc(O)c21 [Example 285],0.87 µM,0.076 µM
Cc1cccc(OCCCn2ncc3nc(-n4cc(C(=O)O)cn4)nc(O)c32)c1C [Example 180],0.17 µM,0.019 µM

SMILES,IC50 (human HIF-PHD3),IC50 (human HIF-PHD2)
Cc1cc(Cn2ncc3nc(-n4cc(C(=O)O)cn4)nc(O)c32)c(F)cc1-c1ccccc1F [Example 103],0.22 µM,0.018 µM
COc1cc(-c2ccccc2F)ccc1Cn1ncc2nc(-n3cc(C(=O)O)cn3)nc(O)c21 [Example 90],0.036 µM,0.02 µM
Cc1cc(C)cc(C(C)n2ncc3nc(-n4cc(C(=O)O)cn4)nc(O)c32)c1 (centres unmarked) [Example 309],0.68 µM,0.094 µM
C[C@H](c1ccc(C(F)(F)F)cc1)n1ncc2nc(-n3cc(C(=O)O)cn3)nc(O)c21 [Example 284],0.83 µM,0.15 µM
O=C(O)c1cnn(-c2nc(O)c3c(cnn3[C@H]3CCc4ccccc43)n2)c1 [Example 397],0.72 µM,0.046 µM
CC(C)C(c1ccc(F)c(F)c1)n1ncc2nc(-n3cc(C(=O)O)cn3)nc(O)c21 (centres unmarked) [Example 358],0.7 µM,0.045 µM
O=C(O)c1cnn(-c2nc(O)c3c(cnn3C3CCCCCCC3)n2)c1 [Example 394],0.42 µM,0.033 µM
C[C@@H](C1CCC(C)(C)CC1)n1ncc2nc(-n3cc(C(=O)O)cn3)nc(O)c21 [Example 382],0.41 µM,0.015 µM
CC[C@@H](c1ccc(F)c(C)c1)n1ncc2nc(-n3cc(C(=O)O)cn3)nc(O)c21 [Example 344],0.53 µM,0.025 µM
CC1CCN(c2ccc(C(C)n3ncc4nc(-n5cc(C(=O)O)cn5)nc(O)c43)cc2)CC1 (racemic) [Example 425],0.39 µM,0.048 µM
O=C(O)c1cnn(-c2nc(O)c3c(cnn3Cc3ccc(-c4ccc(Cl)cc4F)cc3)n2)c1 [Example 74],0.072 µM,0.02 µM
"CCC(c1ccc(Cl)c(C)c1)n1ncc2nc(-n3cc(C(=O)O)cn3)nc(O)c21 (single isomer, unassigned) [Example 347]",0.4 µM,0.038 µM
C[C@@H]1C[C@H](C)C[C@@H](n2ncc3nc(-n4cc(C(=O)O)cn4)nc(O)c32)C1 [Example 402],0.71 µM,0.024 µM
CCC(c1cc(C(F)(F)F)cc(C(F)(F)F)c1)n1ncc2nc(-n3cc(C(=O)O)cn3)nc(O)c21 (centres unmarked) [Example 334],2.5 µM,0.26 µM
CC(C)(Cn1ncc2nc(-n3cc(C(=O)O)cn3)nc(O)c21)c1ccc(Cl)c(Cl)c1 [Example 121],0.61 µM,0.21 µM
C[C@@H](c1ccc(F)c(F)c1)n1ncc2nc(-n3cc(C(=O)O)cn3)nc(O)c21 [Example 251],0.47 µM,0.055 µM
Cc1nn([C@@H](C)c2ccc(F)cc2F)c2c(O)nc(-n3cc(C(=O)O)cn3)nc12 [Example 451],0.84 µM,0.091 µM
C[C@@H](c1cc(C(F)(F)F)ccc1C(F)(F)F)n1ncc2nc(-n3cc(C(=O)O)cn3)nc(O)c21 [Example 275],0.92 µM,0.12 µM
CC1CC(n2ncc3nc(-n4cc(C(=O)O)cn4)nc(O)c32)CC(C)(C)C1 (centres unmarked) [Example 407],0.46 µM,0.037 µM
"CC1CCCC(n2ncc3nc(-n4cc(C(=O)O)cn4)nc(O)c32)C1 (single isomer, unassigned) [Example 399]",0.59 µM,0.054 µM
Cc1cccc([C@H](C)n2ncc3nc(-n4cc(C(=O)O)cn4)nc(O)c32)c1 [Example 262],0.36 µM,0.029 µM

SMILES,IC50 (human HIF-PHD3),IC50 (human HIF-PHD2)
C[C@@H](c1ccc(Cl)c(F)c1)n1ncc2nc(-n3cc(C(=O)O)cn3)nc(O)c21 [Example 271],0.26 µM,0.012 µM
Cc1nn(C2CCCCC2)c2c(O)nc(-n3cc(C(=O)O)cn3)nc12 [Example 227],3.8 µM,0.13 µM
CC1(C)CCCC(n2ncc3nc(-n4cc(C(=O)O)cn4)nc(O)c32)C1 (centres unmarked) [Example 411],0.55 µM,0.04 µM
Cc1nn(Cc2ccc3ccccc3c2)c2c(O)nc(-n3cc(C(=O)O)cn3)nc12 [Example 445],0.4 µM,0.02 µM
Cc1ccc(C(C2CC2)n2ncc3nc(-n4cc(C(=O)O)cn4)nc(O)c32)cc1 (centres unmarked) [Example 368],0.41 µM,0.072 µM
O=C(O)c1cnn(-c2nc(O)c3c(cnn3CCCOc3ccc(Cl)cc3)n2)c1 [Example 184],0.36 µM,0.01 µM
"CC(c1ccc(Cl)c(C(F)(F)F)c1)n1ncc2nc(-n3cc(C(=O)O)cn3)nc(O)c21 (single isomer, unassigned) [Example 316]",0.47 µM,0.029 µM
CC(C)[C@H]1CC[C@H](C)C[C@H]1n1ncc2nc(-n3cc(C(=O)O)cn3)nc(O)c21 [Example 404],0.84 µM,0.081 µM
CC[C@@H](c1ccc(Cl)c(Cl)c1)n1nc(C)c2nc(-n3cc(C(=O)O)cn3)nc(O)c21 [Example 455],0.79 µM,0.065 µM
O=C(O)c1cnn(-c2nc(O)c3c(cnn3CCCOc3ccc(C4CCCCC4)cc3)n2)c1 [Example 185],0.33 µM,0.015 µM
"Cc1cc(C(C)n2ncc3nc(-n4cc(C(=O)O)cn4)nc(O)c32)ccc1F (single isomer, unassigned) [Example 302]",0.57 µM,0.05 µM
Cc1ccc([C@H](C)n2ncc3nc(-n4cc(C(=O)O)cn4)nc(O)c32)cc1C [Example 259],0.69 µM,0.044 µM
O=C(O)c1cnn(-c2nc(O)c3c(cnn3C3CCN(c4ccc(C(F)(F)F)cc4)CC3)n2)c1 [Example 436],0.33 µM,0.01 µM
CC(C)C(c1cc(F)cc(F)c1)n1ncc2nc(-n3cc(C(=O)O)cn3)nc(O)c21 (centres unmarked) [Example 360],0.77 µM,0.064 µM
CCC(c1ccc(C)cc1)n1ncc2nc(-n3cc(C(=O)O)cn3)nc(O)c21 (centres unmarked) [Example 328],0.53 µM,0.06 µM
O=C(O)c1cnn(-c2nc(O)c3c(cnn3C[C@H]3CCN(c4ccc(Cl)cc4)C3)n2)c1 [Example 428],0.23 µM,0.021 µM
C[C@@H](c1cc(C(F)(F)F)ccc1F)n1ncc2nc(-n3cc(C(=O)O)cn3)nc(O)c21 [Example 288],0.48 µM,0.18 µM
CCC(c1ccc(F)c(Cl)c1)n1ncc2nc(-n3cc(C(=O)O)cn3)nc(O)c21 (centres unmarked) [Example 337],0.42 µM,0.032 µM
"CCC(c1ccc(F)c(Cl)c1)n1ncc2nc(-n3cc(C(=O)O)cn3)nc(O)c21 (single isomer, unassigned) [Example 338]",0.42 µM,0.028 µM
